Assay results taken from PMC11862924, “Phenylpyrazoles as Inhibitors of the m^6A RNA-Binding Protein YTHDF2” (JACS Au, 2025).
One block for each compound: values may come before it.

Columns and labels:
[1] = MTT cytotoxicity assay, HCT116; format: cell-based; conditions: human, HCT116 cells, triplicates, read-out: Cytotoxicity against cancer cells (IC50), HCT116
Protocol: (§1) JAR, K562, and HCT116 cells were seeded in 96-well plates (3500 cells/well) and incubated for 8 h. The medium with different concentrations of compounds (100, 33.3, 11.1, 3.7, 1.2, and 0.4 μM) was added to the 96-well plates. Data were normalized to the medium with 0.1% DMSO. After incubation for 72 h, MTT solution (5 mg/mL, 20 μL) was added per well in a dark environment and incubated for 4 h. After the medium was discarded, DMSO (150 μL) was added per well, and the absorbance was measured at 492 nm by a plate reader (TECAN Spark).

HCT116 = assay: CCK-8 proliferation assay, HCT116; format: cell-based; conditions: Homo sapiens, HCT-116; CCK-8 kit assay, triplicates, 72 h; read-out: Anti-proliferation activity against cancer cells (IC50), HCT116
Protocol: (§2) The JAR, K562, HCT116, and MOLM13 cells were seeded in 96-well plates (3000 cells/well). After being cultured overnight, compounds were added together with the DMSO treatment (0.1%) as a control. After 72 h, CCK-8 solution (Vazyme, A311) was added, and the cells were incubated at 37 °C for 4 h. The absorbance was measured at 450 nm using a plate reader (TECAN Spark).

K562 = assay: CCK-8 proliferation assay, K562; format: cell-based; conditions: Homo sapiens, CCK-8 kit assay, triplicates, 72 h, read-out: Anti-proliferation activity against cancer cells (IC50), K562
Protocol: as §2

[2] = MTT cytotoxicity assay, K562; format: cell-based; conditions: human, K562 cells, triplicates, read-out: Cytotoxicity against cancer cells (IC50), K562
Protocol: as §1

JAR = assay: CCK-8 proliferation assay, JAR; format: cell-based; conditions: Homo sapiens; CCK-8 kit assay, triplicates, 72 h; read-out: Anti-proliferation activity against cancer cells (IC50), JAR
Protocol: as §2

[3] = molecular target: T1, YTHDF2 (residues 383–553) (Homo sapiens, UniProt Q9Y5A9); assay: Fluorescence polarization (FP) assay, YTHDF2–m6A RNA interaction; format: binding; conditions: 100 μM compound; YTHDF2 (residues 383–553, 20 nM), FAM-labeled m6A RNA probe 5 nM; average ± SD
T1 construct: A YTHDF2 YTH domain construct (residues 383–553) was subcloned to a pOPIN plasmid; made in house; host or cells: Escherichia coli BL21(DE3)
T1 sequence (Q9Y5A9 383-553): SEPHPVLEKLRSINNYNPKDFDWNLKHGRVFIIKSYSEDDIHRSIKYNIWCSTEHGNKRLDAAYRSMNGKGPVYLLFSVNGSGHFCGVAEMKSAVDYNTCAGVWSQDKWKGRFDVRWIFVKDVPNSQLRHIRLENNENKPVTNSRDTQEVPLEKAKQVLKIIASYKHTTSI
Protocol: The FP assay was performed in 384-well black plates (Corning no. 4514) with a total reaction volume of 15 μL. The final concentrations of protein (YTHDF2) and RNA were […], respectively, in a buffer containing 20 mM HEPES/KOH pH 7.5, 50 mM NaCl, 0.005% Tween 20, and 1 mM GSH (DTT). Compounds were incubated with protein, added FAM-m^6A RNA probe ([…](m6)ACUGUG) (purchased from IDT), and incubated at 4 °C for 30 min. The fluorescence polarization was measured using a plate reader (TECAN Spark) under an excitation wavelength of 485 nm and an emission wavelength of 535 nm with a bandwidth of 20 nm. […] The data were determined using GraphPad Prism 9.

[4] = MTT cytotoxicity assay, JAR; format: cell-based; conditions: human, JAR cells, triplicates, read-out: Cytotoxicity against cancer cells (IC50), JAR
Protocol: as §1

Structure (SMILES): O=C(O)c1ccc(-n2cc(C(=O)c3ccc(F)cc3O)cn2)cc1 [CK-89]
- IC50 at 72 h [1]: 32.8 ± 7.5 µM
- IC50 (HCT116): > 50 µM
- IC50 (K562): > 50 µM
- IC50 at 72 h [2]: 43.8 ± 22.7 µM
- IC50 (JAR): > 50 µM
- inhibition at 100 µM [3]: 44.4 ± 1.8%
- IC50 at 72 h [4]: > 50 µM

Structure (SMILES): CS(=O)(=O)c1ccc(-n2cc(C(=O)c3ccccc3O)cn2)cc1 [CK-50]
- IC50 at 72 h [1]: > 50 µM
- IC50 (HCT116): > 50 µM
- IC50 (K562): > 50 µM
- IC50 at 72 h [2]: 48.2 ± 11.1 µM
- IC50 (JAR): > 50 µM
- inhibition at 100 µM [3]: 24.3 ± 4%
- IC50 at 72 h [4]: > 50 µM

Structure (SMILES): O=C(O)c1ccc(-n2cc(C(=O)c3cccc(Cl)c3O)cn2)cc1 [CK-96]
- IC50 at 72 h [1]: 20.6 ± 8.1 µM
- IC50 (HCT116): > 50 µM
- IC50 (K562): > 50 µM
- IC50 at 72 h [2]: 25.4 ± 7.8 µM
- IC50 (JAR): > 50 µM
- inhibition at 100 µM [3]: 52.2 ± 10.1%
- IC50 at 72 h [4]: 40.2 ± 12.7 µM

Structure (SMILES): Cc1ccc(C(=O)c2cnn(-c3ccc(C(=O)O)cc3)c2)c(O)c1 [CK-73]
- IC50 at 72 h [1]: > 50 µM
- IC50 (HCT116): > 50 µM
- IC50 (K562): > 50 µM
- IC50 at 72 h [2]: > 50 µM
- IC50 (JAR): > 50 µM
- inhibition at 100 µM [3]: 26.3 ± 6.8%
- IC50 at 72 h [4]: > 50 µM

Structure (SMILES): COc1ccc(-n2cc(C(=O)c3ccccc3O)cn2)cn1 [CK-47]
- IC50 at 72 h [1]: > 50 µM
- IC50 (HCT116): > 50 µM
- IC50 (K562): > 50 µM
- IC50 at 72 h [2]: > 50 µM
- IC50 (JAR): > 50 µM
- inhibition at 100 µM [3]: 25.5 ± 6.7%
- IC50 at 72 h [4]: > 50 µM

Structure (SMILES): Cc1ccc(O)c(C(=O)c2cnn(-c3ccc(C(=O)O)cc3)c2)c1 [CK-54]
- IC50 at 72 h [1]: > 50 µM
- IC50 (HCT116): > 50 µM
- IC50 (K562): > 50 µM
- IC50 at 72 h [2]: > 50 µM
- IC50 (JAR): > 50 µM
- inhibition at 100 µM [3]: 20.9 ± 3.8%
- IC50 at 72 h [4]: > 50 µM

Structure (SMILES): O=C(c1cnn(-c2ccccc2)c1)c1ccccc1O [CK-22]
- IC50 at 72 h [1]: 43.5 ± 12.3 µM
- IC50 (HCT116): > 50 µM
- IC50 (K562): 28.3 ± 5.4 µM
- IC50 at 72 h [2]: 32.1 ± 12.2 µM
- IC50 (JAR): 27.6 ± 2.8 µM
- inhibition at 100 µM [3]: -3.7 ± 7.8%
- IC50 at 72 h [4]: 48.1 ± 10.2 µM

Structure (SMILES): O=C(c1cnn(-c2ccc(F)cc2)c1)c1ccccc1O [CK-26]
- IC50 at 72 h [1]: 29.4 ± 10.4 µM
- IC50 (HCT116): 43.2 ± 5.3 µM
- IC50 (K562): 21.5 ± 1.9 µM
- IC50 at 72 h [2]: 23.4 ± 9.4 µM
- IC50 (JAR): 31.2 ± 6.4 µM
- inhibition at 100 µM [3]: 10.7 ± 7.2%
- IC50 at 72 h [4]: 47.2 ± 15.5 µM

Structure (SMILES): O=C(O)c1cccc(-n2cc(C(=O)c3ccccc3O)cn2)c1 [CK-23, 3-(4-(2-hydroxybenzoyl)-1H-pyrazol-1-yl)benzoic acid]
- IC50 at 72 h [1]: 12.9 ± 2.5 µM
- IC50 (HCT116): > 50 µM
- IC50 (K562): > 50 µM
- IC50 at 72 h [2]: 21.5 ± 8.2 µM
- IC50 (JAR): > 50 µM
- IC50 at 72 h [4]: 45 ± 4.6 µM

Structure (SMILES): COC(=O)c1ccc(-n2cc(/C=C(\C#N)C(N)=O)cn2)cc1 [CK-94]
- inhibition at 100 µM [3]: < 30%
- inhibition at 100 μM in the FP assay [3]: 26.6 ± 1.9%

Continued, in another order:

- IC50 (HCT116): 45.6 ± 2.5 µM
- IC50 (K562): 44.8 ± 8.7 µM
- inhibition at 100 µM [3]: -5.2 ± 2.8%
Structure (SMILES): O=C(c1cnn(-c2ccc(Cl)cc2)c1)c1ccccc1O [CK-27]
- IC50 at 72 h [1]: > 50 µM
- IC50 at 72 h [2]: > 50 µM
- IC50 (JAR): > 50 µM
- IC50 at 72 h [4]: > 50 µM

- IC50 (HCT116): > 50 µM
- IC50 (K562): 34.9 ± 3.5 µM
- inhibition at 100 µM [3]: 0.8 ± 7%
Structure (SMILES): O=C(c1cnn(-c2ccccc2Cl)c1)c1ccccc1O [CK-44]
- IC50 at 72 h [1]: 18.5 ± 14.1 µM
- IC50 at 72 h [2]: 32.3 ± 8.8 µM
- IC50 (JAR): 41.2 ± 8.5 µM
- IC50 at 72 h [4]: 44.7 ± 14.4 µM

- IC50 (HCT116): > 50 µM
- IC50 (K562): 42.9 ± 6.2 µM
- inhibition at 100 µM [3]: 5.4 ± 4.2%
Structure (SMILES): COc1ccccc1-n1cc(C(=O)c2ccccc2O)cn1 [CK-46]
- IC50 at 72 h [1]: 49.4 ± 22.1 µM
- IC50 at 72 h [2]: 23.8 ± 4.7 µM
- IC50 (JAR): > 50 µM
- IC50 at 72 h [4]: > 50 µM

- IC50 (HCT116): > 50 µM
- IC50 (K562): 48.2 ± 6.3 µM
- inhibition at 100 µM [3]: 28.8 ± 0.1%
Structure (SMILES): O=C(O)c1ccc(-n2cc(C(=O)c3ccc(Cl)cc3O)cn2)cc1 [CK-88]
- IC50 at 72 h [1]: > 50 µM
- IC50 at 72 h [2]: 43.2 ± 10.4 µM
- IC50 (JAR): 39 ± 3.2 µM
- IC50 at 72 h [4]: 25 ± 3.6 µM

- IC50 (HCT116): > 50 µM
- IC50 (K562): > 50 µM
- inhibition at 100 µM [3]: 42.2 ± 12.1%
Structure (SMILES): O=C(c1cnn(-c2ccc(Br)cc2)c1)c1ccccc1O [CK-28]
- IC50 at 72 h [1]: > 50 µM
- IC50 at 72 h [2]: > 50 µM
- IC50 (JAR): > 50 µM
- IC50 at 72 h [4]: > 50 µM

- IC50 (HCT116): > 50 µM
- IC50 (K562): > 50 µM
- inhibition at 100 µM [3]: 17.5 ± 4.2%
Structure (SMILES): O=C(c1cnn(-c2ccc(C(F)(F)F)cc2)c1)c1ccccc1O [CK-48]
- IC50 at 72 h [1]: 43.1 ± 8.6 µM
- IC50 at 72 h [2]: 22.8 ± 2.5 µM
- IC50 (JAR): > 50 µM
- IC50 at 72 h [4]: 37 ± 12.7 µM
